Test results as given in article PMC9313812, “The Pseudo‐Natural Product Rhonin Targets RHOGDI” (Angewandte Chemie (International Ed. in English), 2022).

Experiments:
NIH/3T3 cells [1] = assay: Wound healing assay (cell migration); assay type: cell-based; conditions: 10 µM Rhonin; 2 µg/ml RHO inhibitor I; purmorphamine 2 µM
Protocol: Supplementary Figure S13. Influence of 10 µM Rhonin on cell migration in NIH/3T3 cells upon stimulation with purmorphamine (Purm, 2 µM). The RHO inhibitor I was used as a control. Cell migration was monitored by means of a wound healing assay. Data ar e representative of three independent experiments (n=3, N = 3), mean values ± SD. […]
40,000 x g for 30 min at 4°C. Supernatants were collected as cytoplasmic fraction and pellets were resuspended into a homogenization buffer (0.25 M sucrose, 20 mM Tris/HCl pH 7.4, 25 mM KCl, 5 mM MgCl2) and further centrifuged (2 h at 100,000 x g) using an iodixanol (OptiPrep, Axis Shield) gradient solution. Obtained fractions were used for immunoblotting.
NIH/3T3 cells were seeded in a 96 plate (10,000 cell per well/ plate name: Essen Bioscience NO 4379). NIH/3T3 cells were grown till 80% confluence and then serum starved (0 % FCS) for 24 h. […] Cell migration was monitored using IncuCyte ZOOM for a period of 48 h. The images were analyzed by the Incucyte Scratch Wound Analysis Software. […]
GTPase primary antibody (RAC1, CDC42 or RHOA) was added and the tubes and were incubated for 45 min at room temperature. […] Absorption was detected at 490 nm using a plate reader (Tecan Sparks).
Aqueous solubility of compounds was assessed by determination of the kinetic solubility of a test compound in aqueous buffer compared to a solution in organic solvent (acetonitrile). […]

NIH/3T3 cells [2] = assay: Detection of cilia (acetylated tubulin staining); assay type: cell-based
Protocol: Supplementary Figure S6 (related to Figure 5). Characterization of compound 7l (Rhonin).
(a) GLI-responsive reporter gene assay in SHH-LIGHT2 cells. (b) Influence of Rhonin on the expression of Alpl. C3H10T1/2 cells were treated with 1.5 µM purmorphamine and the compounds for 96 h prior to RT-qPCR to detect Alpl mRNA levels. Data were normalzed to Gapdh and Ap3d1 gene levels and are mean values (n = 3) ± SD. (c) Detection of cilia in NIH/3T3 cells. NIH/3T3 cells were cultured in serum reduced (0.5 % FCS) medium for 24 h to induce cilia formation, followed by a pre-treatment of cells with different concentrations of 7l or Vismodegib or DMSO as a control in serum reduced medium. After another 24h cells were treated with 2 µM purmorphamine or DMSO as a control and with different concentrations of 7l, or Vismodegib or DMSO as a control for 24 h. […]
cilia were stained with an antibody against acetylated tubulin. SMO was marked with an anti-SMO antibody and DAPI was used to stain the nuclei. For quantification of cilia, at least 100 cilia per condition and biological replicate were analyzed for the intensity of anti-acetylated tubulin antibody staining. […] Statistical significance was evaluated using an unpaired t-test with a confidence interval of 95 % (p ≤ n.s.). […]

RHOGDI1 = target: T1, RHOGDI1 (Homo sapiens, UniProt P52565); assay: Fluorescence polarization competition with FITC-labelled GerGer-Rab1 peptide; assay type: binding; conditions: 5 μM FITC-labelled GerGer-Rab1 peptide, 50 μM RHOGDI1
T1 construct: GST; made in house; host or cells: E. coli
T1 sequence (P52565 whole entry): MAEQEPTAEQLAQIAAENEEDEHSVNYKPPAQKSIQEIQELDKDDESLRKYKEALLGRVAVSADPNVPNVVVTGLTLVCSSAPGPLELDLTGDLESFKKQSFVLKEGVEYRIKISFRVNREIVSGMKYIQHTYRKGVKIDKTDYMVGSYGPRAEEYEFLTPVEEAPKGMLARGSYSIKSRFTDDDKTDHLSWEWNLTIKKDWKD
Protocol: Figure 4 Compound 7 a is a RHOGDI1 inhibitor. a) Structure of the affinity probes 8 and 9. b) Affinity‐based enrichment of RHOGDI1 from NIH/3T3 lysates by probe 8 as compared to probe 9 and detection using a RHOGDI1 antibody. c) Competition pulldown was performed as in b in presence of S10a as a competitor. d) Structure of the fluorescent derivative 10. e) Binding of derivative 10 to RHOGDI1‐3. […] Fluorescence polarization measurements using 10 and RHOGDI1‐3. […] Representative data (n=3). P: pellet; S: supernatant. g) Competition of derivative 10 with RAC1. Fluorescence polarization measurements after adding 2 μM prenylated RAC1 or non‐prenylated RAC1 to 2 μM compound 10 and 5 μM RHOGDI1. Representative data (n=3). h) Fluorescence polarization measurements upon titration of 7 a into a mixture of 5 μM FITC‐labelled GerGer‐Rab1 peptide and 50 μM RHOGDI1.

With `COC(=O)C1(C(CC(=O)c2cccnc2)c2ccccc2)N=C(c2ccc(Br)cc2)C2C(=O)N(C)C(=O)C21` (stereo not drawn) [7l] the “Wound closure / cell migration (in words)” value (NIH/3T3 cells [1]) was “moderately inhibited wound closure” and the “Cilia formation (in words)” value (NIH/3T3 cells [2]) was “cilia formation was not affected”.

In the case of `COC(=O)C1(C(CC(=O)c2ccccc2)c2ccccc2)N=C(c2ccc(Br)cc2)C2C(=O)N(C)C(=O)C21` (stereo not drawn) [7a], the “Competition with binding of RHOGDI1 to GerGer-RAB1 peptide (in words)” value (RHOGDI1) is reported as “competed”.
